Test results reported in publication PMC4441536 (Journal of Medicinal Chemistry, 2015).
Converted amounts (≈) assume the structure as drawn. “And” between values parts separate entries of the source, which are not always exact repeats. Equal entries are not always repeated. Where two headings read alike, the source gives them in different places.

Assays:
5-HT2A (h) = 5-HT2A (h) (Homo sapiens, UniProt P28223)
H2 (h) = H2 (h) (Homo sapiens, UniProt P25021)
beta 1 (h) = beta 1 (h) (Homo sapiens, UniProt P08588)
AT1 (h) = AT1 (h) (Homo sapiens, UniProt P30556)
AT1 (h), sequence (P30556 whole entry): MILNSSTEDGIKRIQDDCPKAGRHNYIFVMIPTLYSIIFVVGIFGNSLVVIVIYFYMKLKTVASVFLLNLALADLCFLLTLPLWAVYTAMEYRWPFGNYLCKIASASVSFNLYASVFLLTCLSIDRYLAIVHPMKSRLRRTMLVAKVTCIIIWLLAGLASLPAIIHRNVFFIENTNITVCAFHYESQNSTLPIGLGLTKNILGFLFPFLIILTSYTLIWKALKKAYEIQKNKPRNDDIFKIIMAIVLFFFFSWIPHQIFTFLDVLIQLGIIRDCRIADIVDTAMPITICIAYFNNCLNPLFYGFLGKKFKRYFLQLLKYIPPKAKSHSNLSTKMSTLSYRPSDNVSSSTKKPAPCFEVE

NK3 (h) = NK3 (h) (Homo sapiens, UniProt P29371)
CB1 (h) = CB1 (h) (Homo sapiens, UniProt P21554)
5-HT1B = 5-HT1B (Rattus norvegicus, UniProt P28564)
5-HT5a (h) = 5-HT5a (h) (Homo sapiens, UniProt P47898)
5-HT5a (h), sequence (P47898 whole entry): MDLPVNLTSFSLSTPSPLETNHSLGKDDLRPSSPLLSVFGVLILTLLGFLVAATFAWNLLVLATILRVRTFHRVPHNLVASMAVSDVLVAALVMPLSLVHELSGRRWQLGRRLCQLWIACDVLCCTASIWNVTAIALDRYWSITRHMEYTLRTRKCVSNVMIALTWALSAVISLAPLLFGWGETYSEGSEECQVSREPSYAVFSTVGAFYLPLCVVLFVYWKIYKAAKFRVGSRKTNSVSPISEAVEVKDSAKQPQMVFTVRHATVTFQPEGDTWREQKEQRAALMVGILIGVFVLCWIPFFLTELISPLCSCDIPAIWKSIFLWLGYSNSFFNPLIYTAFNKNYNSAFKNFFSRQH

5-HT6 (h) = 5-HT6 (h) (Homo sapiens, UniProt P50406)
5-HT7 (h) = 5-HT7 (h) (Homo sapiens, UniProt P34969)
A3 (h) = A3 (h) (Homo sapiens, UniProt P0DMS8)
A3 (h), sequence (P0DMS8 whole entry): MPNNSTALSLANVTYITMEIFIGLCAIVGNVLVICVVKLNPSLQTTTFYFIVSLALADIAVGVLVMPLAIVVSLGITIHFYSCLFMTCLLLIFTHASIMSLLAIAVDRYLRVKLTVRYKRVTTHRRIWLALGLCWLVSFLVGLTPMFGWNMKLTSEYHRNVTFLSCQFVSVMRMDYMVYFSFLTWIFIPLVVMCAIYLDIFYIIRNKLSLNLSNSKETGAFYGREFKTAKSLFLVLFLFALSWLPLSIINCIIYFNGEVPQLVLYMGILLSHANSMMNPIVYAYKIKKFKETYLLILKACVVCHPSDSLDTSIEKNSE

M3 (h) = M3 (h) (Homo sapiens, UniProt P20309)
M3 (h), sequence (P20309 whole entry): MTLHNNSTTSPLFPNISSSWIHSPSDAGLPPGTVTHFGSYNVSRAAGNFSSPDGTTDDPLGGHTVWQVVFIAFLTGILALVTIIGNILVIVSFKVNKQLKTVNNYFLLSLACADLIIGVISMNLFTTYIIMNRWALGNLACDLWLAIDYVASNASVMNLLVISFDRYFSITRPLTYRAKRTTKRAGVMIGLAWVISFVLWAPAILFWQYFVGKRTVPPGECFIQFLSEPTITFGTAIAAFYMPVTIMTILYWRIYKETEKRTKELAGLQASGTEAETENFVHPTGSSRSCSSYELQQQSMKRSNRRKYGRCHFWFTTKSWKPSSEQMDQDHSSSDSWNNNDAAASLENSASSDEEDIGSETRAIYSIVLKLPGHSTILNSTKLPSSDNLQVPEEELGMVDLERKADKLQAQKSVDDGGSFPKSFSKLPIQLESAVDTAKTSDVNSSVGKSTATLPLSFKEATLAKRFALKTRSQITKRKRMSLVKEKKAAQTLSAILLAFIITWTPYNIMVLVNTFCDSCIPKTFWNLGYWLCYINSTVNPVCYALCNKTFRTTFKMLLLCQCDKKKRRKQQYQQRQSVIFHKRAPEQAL

D1 (h) = D1 (h) (Homo sapiens, UniProt P21728)
M2 (h) = M2 (h) (Homo sapiens, UniProt P08172)
M2 (h), sequence (P08172 whole entry): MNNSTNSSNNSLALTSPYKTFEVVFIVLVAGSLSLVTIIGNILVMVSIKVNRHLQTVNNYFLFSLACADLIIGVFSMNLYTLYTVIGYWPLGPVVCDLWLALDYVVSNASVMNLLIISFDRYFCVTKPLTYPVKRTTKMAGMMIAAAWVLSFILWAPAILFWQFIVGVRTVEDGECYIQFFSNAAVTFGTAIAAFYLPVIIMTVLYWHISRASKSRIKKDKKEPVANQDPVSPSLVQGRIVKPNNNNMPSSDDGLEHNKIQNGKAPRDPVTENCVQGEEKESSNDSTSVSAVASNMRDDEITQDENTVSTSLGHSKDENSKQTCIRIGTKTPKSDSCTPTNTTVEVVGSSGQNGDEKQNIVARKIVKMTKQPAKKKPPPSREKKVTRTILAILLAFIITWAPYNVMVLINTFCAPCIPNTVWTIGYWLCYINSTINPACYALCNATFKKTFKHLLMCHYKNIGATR

NK2 (h) = NK2 (h) (Homo sapiens, UniProt P21452)
5-HT3 (h) = 5-HT3 (h) (Homo sapiens, UniProt P46098)
5-HT3 (h), sequence (P46098 24-478): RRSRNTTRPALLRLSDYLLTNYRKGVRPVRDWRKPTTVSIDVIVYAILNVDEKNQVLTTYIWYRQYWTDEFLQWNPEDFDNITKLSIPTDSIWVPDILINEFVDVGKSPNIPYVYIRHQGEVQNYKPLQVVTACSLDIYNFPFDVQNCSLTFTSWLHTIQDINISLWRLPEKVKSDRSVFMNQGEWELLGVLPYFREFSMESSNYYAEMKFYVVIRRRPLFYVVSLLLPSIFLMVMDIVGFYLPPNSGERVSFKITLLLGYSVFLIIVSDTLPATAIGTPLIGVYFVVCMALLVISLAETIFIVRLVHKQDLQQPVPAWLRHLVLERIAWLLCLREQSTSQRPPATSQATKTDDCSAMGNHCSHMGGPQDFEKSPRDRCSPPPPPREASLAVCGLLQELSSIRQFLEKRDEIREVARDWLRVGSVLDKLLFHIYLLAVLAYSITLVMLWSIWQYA

B2 (h) = B2 (h) (Homo sapiens, UniProt P30411)
B2 (h), sequence (P30411 whole entry): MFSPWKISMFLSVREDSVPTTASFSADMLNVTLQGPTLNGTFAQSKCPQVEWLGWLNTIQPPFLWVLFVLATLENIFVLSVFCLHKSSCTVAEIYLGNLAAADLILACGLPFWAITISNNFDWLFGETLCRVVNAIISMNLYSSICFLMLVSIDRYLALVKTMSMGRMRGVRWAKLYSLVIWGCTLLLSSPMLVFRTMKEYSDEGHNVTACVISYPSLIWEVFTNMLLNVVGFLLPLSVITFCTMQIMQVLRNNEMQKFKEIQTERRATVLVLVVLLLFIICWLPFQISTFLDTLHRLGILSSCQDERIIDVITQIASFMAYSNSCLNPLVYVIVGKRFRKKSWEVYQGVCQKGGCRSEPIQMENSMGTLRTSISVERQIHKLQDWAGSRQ

D2S (h) = D2S (h) (Homo sapiens, UniProt P14416)
D2S (h), sequence (P14416 1-414 isoform P14416-2): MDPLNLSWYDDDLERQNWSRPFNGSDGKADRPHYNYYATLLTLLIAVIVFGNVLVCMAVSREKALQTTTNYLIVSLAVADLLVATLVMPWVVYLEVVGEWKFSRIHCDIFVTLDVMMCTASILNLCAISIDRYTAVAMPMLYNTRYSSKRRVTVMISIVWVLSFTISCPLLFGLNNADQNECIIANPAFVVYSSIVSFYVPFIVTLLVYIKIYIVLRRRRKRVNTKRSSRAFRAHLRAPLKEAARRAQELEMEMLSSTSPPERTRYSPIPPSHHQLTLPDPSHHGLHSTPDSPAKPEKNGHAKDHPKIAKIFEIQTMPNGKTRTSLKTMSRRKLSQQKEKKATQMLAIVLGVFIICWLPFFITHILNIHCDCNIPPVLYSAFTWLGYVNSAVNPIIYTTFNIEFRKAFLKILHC

5-HT1A (h) = 5-HT1A (h) (Homo sapiens, UniProt P08908)
5-HT1A (h), sequence (P08908 whole entry): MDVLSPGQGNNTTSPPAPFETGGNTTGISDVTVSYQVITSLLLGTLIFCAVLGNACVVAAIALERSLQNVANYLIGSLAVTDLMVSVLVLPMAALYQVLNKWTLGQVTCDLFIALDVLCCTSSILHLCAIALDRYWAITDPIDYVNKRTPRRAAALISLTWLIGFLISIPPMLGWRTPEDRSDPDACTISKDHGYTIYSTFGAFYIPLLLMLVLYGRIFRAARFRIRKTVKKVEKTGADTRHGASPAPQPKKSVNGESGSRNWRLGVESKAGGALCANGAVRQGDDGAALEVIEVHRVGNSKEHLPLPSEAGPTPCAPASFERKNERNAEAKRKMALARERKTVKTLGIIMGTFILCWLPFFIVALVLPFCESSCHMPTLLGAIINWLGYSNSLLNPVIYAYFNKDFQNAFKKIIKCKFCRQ

MT1 (ML1A) (h) = MT1 (ML1A) (h) (Homo sapiens, UniProt P48039)
MT1 (ML1A) (h), sequence (P48039 whole entry): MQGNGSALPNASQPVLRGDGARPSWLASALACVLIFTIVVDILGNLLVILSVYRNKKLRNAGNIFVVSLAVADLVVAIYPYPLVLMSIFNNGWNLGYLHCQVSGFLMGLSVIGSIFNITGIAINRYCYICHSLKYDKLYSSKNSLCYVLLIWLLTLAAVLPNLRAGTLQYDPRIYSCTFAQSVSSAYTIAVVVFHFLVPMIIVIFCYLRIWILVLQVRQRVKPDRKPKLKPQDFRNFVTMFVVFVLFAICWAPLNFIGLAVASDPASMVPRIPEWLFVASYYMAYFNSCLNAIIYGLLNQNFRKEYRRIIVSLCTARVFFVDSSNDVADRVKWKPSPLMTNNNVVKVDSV

[1] = mouse, in vivo; for AUC / Cmax / Terminal Half-Life: 5 mg/kg
in vivo = conditions: mouse, 5 mg/kg; for half-life: Terminal Half-Life
physchem [2] = conditions: D2O
physchem [3] = assay: physchem
[4] = iv, IV 5 mg/kg, individual animals 2, 3, 4
[5] = po, PO 5 mg/kg, individual animals 6, 7, 8

5-HT2A (h), sequence (P28223 whole entry): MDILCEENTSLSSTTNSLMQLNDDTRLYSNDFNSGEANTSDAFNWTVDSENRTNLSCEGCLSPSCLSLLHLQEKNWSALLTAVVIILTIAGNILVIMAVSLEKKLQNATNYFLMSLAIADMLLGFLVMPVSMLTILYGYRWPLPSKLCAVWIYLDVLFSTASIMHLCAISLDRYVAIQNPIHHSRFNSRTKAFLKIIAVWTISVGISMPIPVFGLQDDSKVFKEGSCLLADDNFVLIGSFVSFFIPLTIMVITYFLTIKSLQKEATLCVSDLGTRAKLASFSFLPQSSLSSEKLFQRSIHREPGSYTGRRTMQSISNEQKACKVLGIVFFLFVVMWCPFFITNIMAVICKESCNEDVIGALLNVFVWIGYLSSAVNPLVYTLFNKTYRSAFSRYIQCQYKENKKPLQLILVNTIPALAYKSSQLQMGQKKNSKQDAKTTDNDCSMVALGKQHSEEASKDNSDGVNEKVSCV

O=C(c1ccc(F)cc1)C1CCN(CCn2c(=O)[nH]c3ccccc3c2=O)CC1 [ketanserin]
nH Ref (5-HT2A (h)): 1.2

CN/C(=N/CCSCc1nc[nH]c1C)NC#N [cimetidine]
nH Ref (H2 (h)): 0.9

CC(C)NCC(O)COc1ccc(CC(N)=O)cc1 (centres unmarked) [atenolol]
nH Ref (beta 1 (h)): 0.9

CNCC(=O)N[C@@H](CCCN=C(N)N)C(=O)N[C@H](C(=O)N[C@@H](Cc1ccc(O)cc1)C(=O)N[C@H](C(=O)N[C@@H](Cc1cnc[nH]1)C(=O)N1CCC[C@H]1C(=O)N[C@@H](C)C(=O)O)C(C)C)C(C)C [saralasin]
nH Ref (AT1 (h)): 0.9

CC[C@H](NC(=O)c1c(C)c(-c2ccccc2)nc2ccccc12)c1ccccc1 [SB 222200]
nH Ref (NK3 (h)): 1.0

CCCCCCC(C)(C)c1ccc([C@@H]2C[C@H](O)CC[C@H]2CCCO)c(O)c1 [CP 55940]
nH Ref (CB1 (h)): 0.8

NCCc1c[nH]c2ccc(O)cc12 [serotonin]
nH Ref (5-HT1B): 1.2
nH Ref (5-HT5a (h)): 0.7
nH Ref (5-HT6 (h)): 0.8
nH Ref (5-HT7 (h)): 0.6

CNC(=O)[C@H]1O[C@@H](n2cnc3c(NCc4cccc(I)c4)ncnc32)[C@H](O)[C@@H]1O [IB-MECA]
nH Ref (A3 (h)): 0.7

C[N+]1(C)CCC(OC(=O)C(c2ccccc2)c2ccccc2)CC1.[I-] [Compound 4-DAMP, 4-DAMP]
nH Ref (M3 (h)): 1.3

CN1CCc2cc(Cl)c(O)cc2[C@@H](c2ccccc2)C1 [SCH 23390]
nH Ref (D1 (h)): 0.9

COc1ccccc1CNCCCCCCNCCCCCCCCNCCCCCCNCc1ccccc1OC [methoctramine]
nH Ref (M2 (h)): 0.8

CCCC[C@H](NC(=O)[C@H](CC(C)C)NC(=O)CNC(=O)[C@@H](NC(=O)[C@H](Cc1ccccc1)NC(=O)[C@H](CO)NC(=O)[C@@H](N)CC(=O)O)C(C)C)C(N)=O [[Nleu10]-NKA (4-10)]
nH Ref (NK2 (h)): 0.9

CN1[C@@H]2CC[C@H]1C[C@@H](OC(=O)c1cc(Cl)cc(Cl)c1)C2 [MDL 72222]
nH Ref (5-HT3 (h)): 1.1

N=C(N)NCCC[C@@H](N)C(=O)N[C@@H](CCCNC(=N)N)C(=O)N1CCC[C@H]1C(=O)N1C[C@H](O)C[C@H]1C(=O)NCC(=O)N[C@@H](Cc1ccccc1)C(=O)N[C@@H](CO)C(=O)N[C@H](Cc1ccccc1)C(=O)N[C@@H](Cc1ccccc1)C(=O)N[C@@H](CCCNC(=N)N)C(=O)O [NPC 567]
nH Ref (B2 (h)): 0.8

(+)butaclamol
nH Ref (D2S (h)): 1.3

CCCN(CCC)C1CCc2cccc(O)c2C1 (centres unmarked) [Compound 8-OH-DPAT, 8-OH-DPAT]
nH Ref (5-HT1A (h)): 1.2

COc1ccc2[nH]cc(CCNC(C)=O)c2c1 [melatonin]
nH Ref (MT1 (ML1A) (h)): 1.3

Cn1cc(CCn2cnc(-c3cnn(C)c3)c2-c2ccc(C#N)cc2)cn1 [Compound 13, 4-(4-(1-methyl-1H-pyrazol-4-yl)-1-(2-(1-methyl-1H-pyrazol-4-yl)ethyl)-1H-imidazol-5-yl)benzonitrile]
volume of distribution [1]: moderate
AUC ([1]; iv): 5.875 µM·h and 7.614 µM·h
Cmax ([1]; iv): 10.4 µM and 13.8 µM
Terminal Half-Life ([1]; iv): 59.8 min and 56.6 min
AUC ([1]; po): 5.161 µM·h and 4.542 µM·h
Cmax ([1]; po): 6.12 µM and 4.88 µM
Terminal Half-Life ([1]; po): 68.4 min and 49.3 min
Cmax (in vivo; [4]): 9.53 µM
half-life (in vivo; [4]): 50.9 min
Tmax (in vivo; iv, Tmax, IV 5 mg/kg, individual animals 2, 3, 4): 4.98 min
bioavailability (in vivo; po): 70%
Cmax (in vivo; [5]): 6.46 µM
half-life (in vivo; [5]): 45.4 min
solubility at 24 h (physchem [2]): 25 mM (≈ 8940 µg/mL)
logD (physchem [3]): 1.05
